Literature values as cited in US20070042040A1, “Methods and compositions using gonadotropin hormone releasing hormone” (priority 2003, published 2007).

Settings: mouse models

In the case of `C[C@]12CC[C@H]3[C@@H](CCC4=C[C@H](O)CC[C@@H]43)[C@@H]1CC[C@@H]2O` [(3α,17β)-estr-4-ene-3,17-diol], the “effect on bone loss” value is given as “reverse bone loss”.
